Results taken from PubChem BioAssay (NCI).
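Each compound was tested at five concentrations against cells in 96-well plates for 48 hours. The concentration for 50% growth inhibition is given as GI50. Definition used: TGI = concentration required for complete inhibition of growth.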

What was measured:
Assay in all cases: DTP human tumour cell line panel, 48 h
SN12C renal = tested on: SN12C renal
K-562 leukemia = tested on: K-562 leukemia
HCC-2998 colon = tested on: HCC-2998 colon
SK-MEL-28 melanoma = tested on: SK-MEL-28 melanoma
SNB-78 CNS = tested on: SNB-78 CNS
M19-MEL melanoma = tested on: M19-MEL melanoma
NCI-H522 lung = tested on: NCI-H522 lung
SK-MEL-5 melanoma = tested on: SK-MEL-5 melanoma
DLD-1 colon = tested on: DLD-1 colon
HT29 colon = tested on: HT29 colon
ACHN renal = tested on: ACHN renal
SF-539 CNS = tested on: SF-539 CNS
NCI-H460 lung = tested on: NCI-H460 lung
OVCAR-5 ovarian = tested on: OVCAR-5 ovarian
786-0 renal = tested on: 786-0 renal
SK-MEL-2 melanoma = tested on: SK-MEL-2 melanoma
SNB-75 CNS = tested on: SNB-75 CNS
COLO 205 colon = tested on: COLO 205 colon
DMS 273 small cell lung = tested on: DMS 273 small cell lung
MOLT-4 leukemia = tested on: MOLT-4 leukemia
XF 498 CNS = tested on: XF 498 CNS
A549 NSCLC = tested on: A549 NSCLC
MALME-3M melanoma = tested on: MALME-3M melanoma
SW-620 colon = tested on: SW-620 colon
SF-295 CNS = tested on: SF-295 CNS
CCRF-CEM leukemia = tested on: CCRF-CEM leukemia
HCT-15 colon = tested on: HCT-15 colon
EKVX NSCLC = tested on: EKVX NSCLC
SNB-19 CNS = tested on: SNB-19 CNS
OVCAR-3 ovarian = tested on: OVCAR-3 ovarian
M14 melanoma = tested on: M14 melanoma
LOX IMVI melanoma = tested on: LOX IMVI melanoma
NCI-H23 lung = tested on: NCI-H23 lung
UO-31 renal = tested on: UO-31 renal
UACC-257 melanoma = tested on: UACC-257 melanoma
CAKI-1 renal = tested on: CAKI-1 renal
U251 CNS = tested on: U251 CNS
OVCAR-8 ovarian = tested on: OVCAR-8 ovarian
DMS 114 small cell lung = tested on: DMS 114 small cell lung
TK-10 renal = tested on: TK-10 renal
OVCAR-4 ovarian = tested on: OVCAR-4 ovarian
NCI-H226 lung = tested on: NCI-H226 lung
HCT-116 colon = tested on: HCT-116 colon
SF-268 CNS = tested on: SF-268 CNS
HOP-62 NSCLC = tested on: HOP-62 NSCLC
HOP-92 NSCLC = tested on: HOP-92 NSCLC
A498 renal = tested on: A498 renal
KM12 colon = tested on: KM12 colon
HL-60(TB) leukemia = tested on: HL-60(TB) leukemia
HOP-18 NSCLC = tested on: HOP-18 NSCLC
UACC-62 melanoma = tested on: UACC-62 melanoma
SR leukemia = tested on: SR leukemia
IGROV1 ovarian = tested on: IGROV1 ovarian
LXFL 529 NSCLC = tested on: LXFL 529 NSCLC
KM20L2 colon = tested on: KM20L2 colon
SK-OV-3 ovarian = tested on: SK-OV-3 ovarian
RPMI-8226 leukemia = tested on: RPMI-8226 leukemia
RXF 393 renal = tested on: RXF 393 renal

## COc1cccc(/C=C2\C(=O)N(C(=O)c3ccc(NC(C)=O)cc3)N=C2C)c1
SN12C renal
  TGI: > 100 µM
K-562 leukemia
  TGI: > 100 µM
HCC-2998 colon
  TGI: > 100 µM
SK-MEL-28 melanoma
  TGI: > 100 µM
SNB-78 CNS
  TGI: > 100 µM
M19-MEL melanoma
  TGI: > 100 µM
NCI-H522 lung
  TGI: > 100 µM
SK-MEL-5 melanoma
  TGI: > 100 µM
DLD-1 colon
  TGI: > 100 µM
HT29 colon
  TGI: > 100 µM
ACHN renal
  TGI: > 100 µM
SF-539 CNS
  TGI: > 100 µM
NCI-H460 lung
  TGI: > 100 µM
OVCAR-5 ovarian
  TGI: > 100 µM
786-0 renal
  TGI: > 100 µM
SK-MEL-2 melanoma
  TGI: > 100 µM
SNB-75 CNS
  TGI: > 100 µM
COLO 205 colon
  TGI: > 100 µM
DMS 273 small cell lung
  TGI: > 100 µM
MOLT-4 leukemia
  TGI: > 100 µM
XF 498 CNS
  TGI: > 100 µM
A549 NSCLC
  TGI: > 100 µM
MALME-3M melanoma
  TGI: > 100 µM
SW-620 colon
  TGI: > 100 µM
SF-295 CNS
  TGI: > 100 µM
CCRF-CEM leukemia
  TGI: > 100 µM
HCT-15 colon
  TGI: > 100 µM
EKVX NSCLC
  TGI: > 100 µM
SNB-19 CNS
  TGI: > 100 µM
OVCAR-3 ovarian
  TGI: > 100 µM
M14 melanoma
  TGI: > 100 µM
LOX IMVI melanoma
  TGI: > 100 µM
NCI-H23 lung
  TGI: > 100 µM
UO-31 renal
  TGI: > 100 µM
UACC-257 melanoma
  TGI: > 100 µM
CAKI-1 renal
  TGI: > 100 µM
U251 CNS
  TGI: > 100 µM
OVCAR-8 ovarian
  TGI: > 100 µM
DMS 114 small cell lung
  TGI: > 100 µM
TK-10 renal
  TGI: > 100 µM
OVCAR-4 ovarian
  TGI: > 100 µM
NCI-H226 lung
  TGI: > 100 µM
HCT-116 colon
  TGI: > 100 µM
SF-268 CNS
  TGI: > 100 µM
HOP-62 NSCLC
  TGI: > 100 µM

## O=C1NC2OCC(O)C(O)C2O1 (stereo not drawn)
SN12C renal
  TGI: > 100 µM
HOP-92 NSCLC
  TGI: > 100 µM
K-562 leukemia
  TGI: > 100 µM
A498 renal
  TGI: > 100 µM
HCC-2998 colon
  TGI: > 100 µM
KM12 colon
  TGI: > 100 µM
SK-MEL-28 melanoma
  TGI: > 100 µM
SNB-78 CNS
  TGI: > 100 µM
HL-60(TB) leukemia
  TGI: > 100 µM
M19-MEL melanoma
  TGI: > 100 µM
NCI-H522 lung
  TGI: > 100 µM
HOP-18 NSCLC
  TGI: > 100 µM
SK-MEL-5 melanoma
  TGI: > 100 µM
DLD-1 colon
  TGI: > 100 µM
HT29 colon
  TGI: > 100 µM
ACHN renal
  TGI: > 100 µM
SF-539 CNS
  TGI: > 100 µM
NCI-H460 lung
  TGI: > 100 µM
OVCAR-5 ovarian
  TGI: > 100 µM
786-0 renal
  TGI: > 100 µM
SK-MEL-2 melanoma
  TGI: > 100 µM
SNB-75 CNS
  TGI: > 100 µM
COLO 205 colon
  TGI: > 100 µM
DMS 273 small cell lung
  TGI: > 100 µM
MOLT-4 leukemia
  TGI: > 100 µM
A549 NSCLC
  TGI: > 100 µM
MALME-3M melanoma
  TGI: > 100 µM
SW-620 colon
  TGI: > 100 µM
SF-295 CNS
  TGI: > 100 µM
CCRF-CEM leukemia
  TGI: > 100 µM
HCT-15 colon
  TGI: > 100 µM
UACC-62 melanoma
  TGI: > 100 µM
SR leukemia
  TGI: > 100 µM
EKVX NSCLC
  TGI: > 100 µM
SNB-19 CNS
  TGI: > 100 µM
OVCAR-3 ovarian
  TGI: > 100 µM
M14 melanoma
  TGI: > 100 µM
LOX IMVI melanoma
  TGI: > 100 µM
NCI-H23 lung
  TGI: > 100 µM
IGROV1 ovarian
  TGI: > 100 µM
UO-31 renal
  TGI: > 100 µM
UACC-257 melanoma
  TGI: > 100 µM
CAKI-1 renal
  TGI: > 100 µM
U251 CNS
  TGI: > 100 µM
OVCAR-8 ovarian
  TGI: > 100 µM
LXFL 529 NSCLC
  TGI: > 100 µM
DMS 114 small cell lung
  TGI: > 100 µM
TK-10 renal
  TGI: > 100 µM
KM20L2 colon
  TGI: > 100 µM
SK-OV-3 ovarian
  TGI: > 100 µM
OVCAR-4 ovarian
  TGI: > 100 µM
HCT-116 colon
  TGI: > 100 µM
SF-268 CNS
  TGI: > 100 µM
HOP-62 NSCLC
  TGI: > 100 µM

## CC(=O)O.[Au].c1ccc([PH+](c2ccccc2)c2ccccc2)cc1
SN12C renal
  GI50: 2.94 µM
  TGI: 8.85 µM
HOP-92 NSCLC
  GI50: 3.02 µM
  TGI: 5.1 µM
HCC-2998 colon
  GI50: 7 µM
  TGI: 15.2 µM
KM12 colon
  GI50: 11.7 µM
  TGI: 39.8 µM
RPMI-8226 leukemia
  GI50: 1.32 µM
  TGI: 4.46 µM
SK-MEL-28 melanoma
  GI50: 1.63 µM
  TGI: 3.66 µM
SNB-78 CNS
  GI50: 8.06 µM
  TGI: > 70.3 µM
HL-60(TB) leukemia
  GI50: 0.0578 µM
  TGI: 0.266 µM
M19-MEL melanoma
  GI50: 2.67 µM
  TGI: 15.6 µM
NCI-H522 lung
  GI50: 0.526 µM
  TGI: 1.96 µM
HOP-18 NSCLC
  GI50: 2.14 µM
  TGI: 3.86 µM
SK-MEL-5 melanoma
  GI50: 1.26 µM
  TGI: 2.9 µM
DLD-1 colon
  GI50: 1.9 µM
  TGI: 4.4 µM
HT29 colon
  GI50: 11.5 µM
  TGI: 32.5 µM
RXF 393 renal
  GI50: 1.42 µM
  TGI: 2.86 µM
ACHN renal
  GI50: 2.86 µM
  TGI: 8.53 µM
SF-539 CNS
  GI50: 8.6 µM
  TGI: 23.2 µM
NCI-H460 lung
  GI50: 17.2 µM
  TGI: 74.7 µM
OVCAR-5 ovarian
  GI50: 14.4 µM
  TGI: 28.6 µM
786-0 renal
  GI50: 1.67 µM
  TGI: 3.27 µM
SK-MEL-2 melanoma
  GI50: 3.24 µM
  TGI: 8.47 µM
SNB-75 CNS
  GI50: 8.1 µM
  TGI: 20.5 µM
COLO 205 colon
  GI50: 1.99 µM
  TGI: 4.73 µM
DMS 273 small cell lung
  GI50: 11.3 µM
  TGI: 55.4 µM
MOLT-4 leukemia
  GI50: 1.61 µM
  TGI: 4.17 µM
A549 NSCLC
  GI50: 18.8 µM
  TGI: 66.1 µM
MALME-3M melanoma
  GI50: 1.62 µM
  TGI: 3.15 µM
SF-295 CNS
  GI50: 2.89 µM
  TGI: > 100 µM
CCRF-CEM leukemia
  GI50: 0.404 µM
  TGI: 2.34 µM
HCT-15 colon
  GI50: 1.56 µM
  TGI: 3.15 µM
UACC-62 melanoma
  GI50: 1.47 µM
  TGI: 4.03 µM
EKVX NSCLC
  GI50: 3.61 µM
  TGI: 8.56 µM
SNB-19 CNS
  GI50: 4.11 µM
  TGI: 15.8 µM
OVCAR-3 ovarian
  GI50: 2.43 µM
  TGI: 5.52 µM
M14 melanoma
  GI50: 1.39 µM
  TGI: 2.77 µM
LOX IMVI melanoma
  GI50: 2.54 µM
  TGI: 7.98 µM
NCI-H23 lung
  GI50: 2.36 µM
  TGI: 6.89 µM
IGROV1 ovarian
  GI50: 2.24 µM
  TGI: 6.95 µM
UO-31 renal
  GI50: 11.1 µM
  TGI: 24.4 µM
UACC-257 melanoma
  GI50: 1.82 µM
  TGI: 5.68 µM
CAKI-1 renal
  GI50: 2.27 µM
  TGI: 5.35 µM
U251 CNS
  GI50: 2.57 µM
  TGI: 7.49 µM
OVCAR-8 ovarian
  GI50: 5.45 µM
  TGI: 26.3 µM
LXFL 529 NSCLC
  GI50: 1.57 µM
  TGI: 2.92 µM
TK-10 renal
  GI50: 2.92 µM
  TGI: 6.74 µM
KM20L2 colon
  GI50: 10.3 µM
  TGI: 35 µM
SK-OV-3 ovarian
  GI50: 15.8 µM
  TGI: 29.2 µM
OVCAR-4 ovarian
  GI50: 2 µM
  TGI: 5.02 µM
NCI-H226 lung
  GI50: 6.59 µM
  TGI: 19.1 µM
HCT-116 colon
  GI50: 1.72 µM
  TGI: 3.2 µM
SF-268 CNS
  GI50: 3.05 µM
  TGI: 11.5 µM
HOP-62 NSCLC
  GI50: 13.7 µM
  TGI: 27.7 µM
